Measured values from patent US11628151B2, “N,N-bis-2-mercaptoethyl isophthalamide for the treatment of neurodegenerative diseases” (EMERAMED LIMITED, priority 2014, dated 2023).

What was measured:
[1] = test system: A549 and BEAS-2B cells; experiment: Particle-induced secretion of pro-inflammatory cytokines in lung epithelial cell lines (overall); format: cell-based
Protocol: Secretion of the pro-inflammatory cytokines interleukin (IL)-6, IL-8 (as well as GM-CSF and MCP-1) into cell media in response to particle exposure was measured in A549 and BEAS-2B cells using the following method.
Lung epithelial cells were seeded at 5×10^4 in 24-well plates. After pre-incubation with NBMI, the antioxidant compound, N-acetyl-L-cysteine (NAC), which was used as a positive control, or vehicle, for 3 hours the medium was removed.
Fresh media containing various particles (as below) in different concentrations was in a total volume of 0.5 ml for an additional 24 hours. The supernatants were then separated from the cells by centrifugation.
IL-8, IL-6, GM-CSF and MCP-1 were measured in the cell free fluid using the DuoSet ELISA Development kit (R&D Systems, Abingdon, UK) according to manufacturer's protocol.
Exposure to medium only served as negative control. Each experiment was performed twice with 4 replicates.
The effect of pre-incubation with 50 μM NBMI on particle-induced cytokine formation was tested at various concentrations of particles.

[2] = test system: primary neurons incubated with oligomeric Aβ42; experiment: Aβ42-induced cell death in primary neurons co-cultured with N9 cells (MTT viability); format: cell-based, mice; details: primary neurons incubated with oligomeric Aβ42 (200 nM), NBMI 10 nM pre-treatment 30 minutes, FIG. 1
Protocol: (§1) Aβ42 stock was solubilized in DMSO at a concentration of 2 mM, vortexed and sonicated for 2 minutes to ensure complete dissolution. Aβ42 was diluted in 50 mM NaPi, 100 mM NaCl (pH 7.4) buffer at a concentration of 200 μM and was used within 3 hours at a final concentration of 200 nM.
Primary cultures of cortical neurons were prepared from the cerebral cortex of mice at embryonic stage 17 (E17). The cells from each cortex were seeded separately on poly-L-ornithine (Sigma) pre-coated 6-well plates at a density of 0.25×10^6 cells/cm^2 in Neurobasal media containing B27 supplement with antioxidant, 1% penstrep and 1% glutamine.
(§2) After 10 days' incubation, neurons were used in experiments. Where indicated, cells were pre-treated for 30 minutes with NBMI (10 nM) added directly to the cell culture medium.
To determine cell viability, cells were washed with PBS (pH 7.4). MTT solution (3-(4,5-dimethylthiazol-2yl)-2,5-diphenyl tetrazolium bromide) was added to cells for 30 minutes at 37° C. After three washes, the insoluble formazan product was dissolved in dimethyl sulfoxide. The optical density of each culture well was then measured using a micro-plate reader (Molecular Probes, Garching, Germany) at 550 nm. The optical density of formazan formed in control cells was taken as 100% of viability. […]

[3] = biological target: T1, Aβ42 (Homo sapiens, UniProt P05067); experiment: Aggregation state of Aβ42 in media and cell lysate of primary microglia cultures (ELISA); format: cell-based; details: in the media and in the cell lysate, FIG. 3
T1 construct: Aβ42 stock was solubilized in DMSO at a concentration of 2 mM; host or cells: added to primary microglia cultures
Protocol: Aβ42 stock was solubilized in DMSO at a concentration of 2 mM, vortexed and sonicated for 2 minutes to ensure complete dissolution. Aβ42 was diluted in 50 mM NaPi, 100 mM NaCl (pH 7.4) buffer at a concentration of 200 μM and was used within 3 hours at a final concentration of 200 nM. TNF-α secretion from primary microglia and the BV2 cell line was valued by a specific sandwich-type enzyme-linked immunoabsorbent assay (ELISA) (Duoset, R&D system) according to the manufacturer's instructions. Intracellular concentration of Aβ42 was measured using a specific sandwich-type ELISA assay (human Aβ42 kit, Invitrogen, KHB3441 and mouse/rat, IBL 27721; Immuno-Biological Laboratories Co., Ltd., Japan) according to the manufacturer's instructions. Homogenization was performed with a cold 4× volume of PBS supplemented with the 1× protease inhibitor cocktail, followed by the addition of a solution 8.2 M guanidine/82 mM Tris HCl (pH 8.0) to yield a solution with a 5M final guanidine concentration.

[4] = test system: microglia; experiment: Internalization of Aβ42 by microglia; format: cell-based; details: following Aβ42 administration; FIG. 2B
Protocol: as §1
(§3) TNF-α secretion from primary microglia and the BV2 cell line was valued by a specific sandwich-type enzyme-linked immunoabsorbent assay (ELISA) (Duoset, R&D system) according to the manufacturer's instructions. Intracellular concentration of Aβ42 was measured using a specific sandwich-type ELISA assay (human Aβ42 kit, Invitrogen, KHB3441 and mouse/rat, IBL 27721; Immuno-Biological Laboratories Co., Ltd., Japan) according to the manufacturer's instructions.
N9 cells were treated with 200 nM Aβ42488 (Anaspect), and AR internalization was recorded in culture for 24 hours after AR administration using a CelIR microscope, with the image processed using CelIR software.

[5] = test system: TNF-α; experiment: Primary microglia activation (TNF-α release, ELISA) following Aβ42 administration; format: cell-based; details: FIG. 2A
Protocol: as §1, §2, §3

T1 sequence (P05067 672-713 limits assumed): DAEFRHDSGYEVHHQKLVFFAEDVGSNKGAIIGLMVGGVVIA

In the case of CC(=O)N[C@@H](CS)C(=O)O [NAC, N-acetyl-L-cysteine, reference compound], the “secretion of inflammatory cytokines” value ([1]; pre-incubation with 5 mM NAC (positive control)) is reported as “effective in reducing”.
O=C(NCCS)c1cccc(C(=O)NCCS)c1 [NBMI, N,N-bis-2-mercaptoethyl isophthalamide] was tested, and the “particle-induced secretion of pro-inflammatory cytokines” value ([1]; both cell lines (A549, BEAS-2B), pre-incubation with 50 μM NBMI) was “can reduce”, the Aβ42-induced cell death [2] was “reduced” and the “aggregation state of Aβ42” value [3] was “changed”. For the same molecule, the “internalization of Aβ42 by microglia” value [4] was “modulated” and the “primary microglia activation (evaluated as TNF-α release)” value [5] was “blocked”.
